These results are taken from patent US9618524B2, “Method, composition, isolation and identification of a plaque particle and related biomarker” (Plaxgen Inc., priority 2012, dated 2017).

What all share (experiment): Mass spectroscopy proteomics, semi-quantitative binding affinity of serum proteins (plaqueproteome, Table 2)
Common to all, as to conditions: higher number = stronger affinity

Assay [1] addresses T1, Abeta-42 plaque particles (Homo sapiens, UniProt P05067).
T1 construct: Abeta 1-42
The protocol:
Next to isolate serum derived Abeta-42 plaque particles, the plasma or serum samples obtained from AD subjects were first centrifuged at 5,000 rpm for 5 min and the supernatants were transferred to new centrifuge tubes. Next, the supernatants were diluted in PBS to make 50% of the serum and plasma samples and used for incubation with Abeta-42 plaque oligomers/aggregates. Each assay was performed in 1 mL reaction (800 μL of 50% plasma or serum) and 200 μL (30 μg) of the Abeta-42 aggregates and the mixtures were incubated at 37° C. for 1 hr. To the mixture Thioflavin S dye (120 μg) was added and the sample was incubated for additional 30 min at 37° C. After the incubation, the mixture was directly used for sample acquisition using flow cytometer (FACS ARIA II, BD Biosciences, San Jose, Calif.). After initial detection of Abeta-42 plaque particles in the acquisition blot, gates were drawn in fluorescent dot blot to separately sort and isolate fluorescently labeled Abeta-42 particles.
(§1) For preparing trypsin digested peptide sequences, the isolated plaque particles were centrifuged at 10000 rpm for 5 min and the pellet containing plaque particles was resuspended in 100 μl PBS buffer. Stock solutions of digestion buffer (Ammonium Biocarbonate 50 mM), reducing buffer (DDT 100 mM) and alkylation buffer (lodoaceamide 100 mM) were prepared and stored at −20° C. for up to two months. For trypsin digestion, 100 μl of each plaque particles (2000 of Abeta-42, cholesterol, Tau and alpha-synuclein) were precipitated using cold acetone −80° C. by adding 4X's the volume. The samples were placed on dry ice for 10 min with intermittent vortex. Next, the samples were centrifuged at 4° C. at 10000 G for 10 min. Top layer of acetone was carefully removed from the tube with care not to disturb the plaque particles pellet. The samples were speed-vac for 10 min to ensure all acetone has been boiled away. The plaque particles pellet were reconstituted with 15 μl 8M Urea 100 mM Ammonium bicarbonate stock and 20 μl protease max solution. The protease max solution (Promega, Madison, Wis.) was prepared from stock by adding 60 μl 50 mM Ammonium bicarbonate and used for 3 solution digests (20 μl each). […] The tubes were incubated at 55° C. for 30 minutes. The tubes were then removed and brought to the room temperature followed by addition of 3.2 μl of 1M acrylamide and incubated at room temperature for 30 minutes. To the sample, 63 μL of 50 mM Ammonium bicarbonate was added for a final volume of 98 μl and 2 μl of trypsin (10 μg, Trypsin/Lys C Mix). After mixing the solution with pipet the samples were incubated at 37° C. overnight. After the overnight digest, the tryptic digest were quenched and acidified by adding 10 μl of 50% formic acid/water stock dilution. The samples were centrifuged at 10000 G for 2 minutes and purified using stage tip and used for MS/Mass analysis.
(§2) All MS/MS samples were analyzed using Sequest (Thermo Fisher Scientific, San Jose, Calif., USA; version 1.0). Sequest was set up to search the SUMS_uniprot_Human database (35847 entries) assuming the digestion enzyme strict trypsin. Sequest was searched with a fragment ion mass tolerance of 1.00 Da and a parent ion tolerance of 20 PPM. Propionamide of cysteine was specified in Sequest as a fixed modification. Oxidation of methionine and phospho of serine, threonine and tyrosine were specified in Sequest as variable modifications.
Scaffold (version Scaffold_4.2.1, Proteome Software Inc., Portland, Oreg.) was used to validate MS/MS based peptide and protein identifications. […] Protein probabilities were assigned by the Protein Prophet algorithm (Nesvizhskii, Al et al 2003). […] Proteins sharing significant peptide evidence were grouped into clusters. Proteins were annotated with GO terms from NCBI (downloaded Jan. 17, 2014).

Assay [2] concerns the target T2, alpha-synuclein plaque particles (Homo sapiens, UniProt P37840).
T2 construct: 140 amino acids polypeptide
On the procedure: To prepare oligomers/aggregates of human alpha-synuclein (140 amino acids polypeptide), 1 mg of the recombinant alpha-synuclein protein was suspended in 1 mL of PBS and the sample was incubated at 37° C. for 2 hrs. After incubation, all the samples were centrifuged for 5 min. at 5000 rpm to remove precipitate, if any, and the supernatant containing oligomers/aggregates were used in vitro plaque particles formation assay. For detecting alpha-synuclein plaque particles Thioflavin S (Ex/Em=430 nm/550 nm) amyloid binding fluorescent dye (10 μg) was used.
Similarly, to isolate alpha-synuclein plaque particles, diluted plasma or serum samples obtained from AD subjects were used for incubation with alpha-synuclein plaque oligomers/aggregates. Each assay was performed in 1 mL reaction (800 μL of 50% plasma or serum) and 200 μL (30 μg) of the alpha-synuclein aggregates and the mixtures were incubated at 37° C. for 1 hr. To the mixture Thioflavin S dye (120 μg) was added and the sample was incubated for additional 30 min at 37° C. After the incubation, the mixture was directly used for sample acquisition using flow cytometer (FACS ARIA II, BD Biosciences, San Jose, Calif.). After initial detection of alpha-synuclein plaque particles, gates were drawn in the acquisition blot to separately sort and isolate fluorescently labeled alpha-synuclein particles.
as §1, §2
Scaffold (version Scaffold_4.2.1, Proteome Software Inc., Portland, Oreg.) was used to validate MS/MS based peptide and protein identifications.

Assay [3] deals with Tau plaque particles. Also on record: species or system human. The protocol: For Tau-74 (74-102) (Exon 3/Insert 2 domain) preparation, 1 mg of Tau-74 was suspended in 1 mL of PBS and the sample was incubated at 37° C. for 2 hrs. Similarly for preparing Tau-275 (275-305) (Repeat 2 domain) 1 mg of the peptide was suspended in 1 mL of PBS and the sample was incubated at 37° C. for 2 hrs. After incubation, all the samples were centrifuged for 5 min. at 5000 rpm to remove precipitate, if any, and the supernatant containing oligomers/aggregates were used for in vitro amyloid plaque particles formation assay. For detecting Tau plaque particles, Thioflavin S (Ex/Em=430 nm/550 nm) amyloid binding fluorescent dye (10 μg) was used in the assay.
Next, to isolate Tau plaque particles, as performed for Abeta-42 and Abeta-28 plaque particles isolation, diluted serum samples were used for incubation separately with Tau-45, Tau-74 and Tau-275 oligomers/aggregates. Each assay was performed in 1 mL reaction (800 μL of 50% plasma or serum) and 200 μL (30 μg) of each Tau aggregates and the mixtures were incubated at 37° C. for 1 hr. To the each mixture Thioflavin S dye (120 μg) was added and the sample was incubated for additional 30 min at 37° C. After the incubation, each sample was directly used for sample acquisition using flow cytometer (FACS ARIA II, BD Biosciences, San Jose, Calif.). After initial detection of Tau plaque particles, gates were drawn in the acquisition blot to separately sort and isolate fluorescently labeled Tau plaque particles.
as §1, §2

Assay [4] relates to High Density cholesterol (Chl Large) plaque particles. Also on record: species or system human. The protocol:
(§3) The goal was to isolate plaque particles synthesized in the bio-fluids in a relatively pure form to enable their subsequent use for identification of components that contribute to the plaque formation. In order to isolate cholesterol plaque particles, the plasma or serum samples obtained from atherosclerotic subjects were first centrifuged at 5,000 rpm for 5 min and the supernatants were transferred to new centrifuge tubes. Next, the supernatants were diluted in PBS to make 50% of the serum and used for incubation with cholesterol oligomers/aggregates. Each assay was performed in 1 mL reaction (800 μL of 50% plasma or serum) and 200 μL (30 μg) of the Cholesterol aggregates and the mixtures were incubated at 37° C. for 1 hr After the incubation, the mixture was directly used for sample acquisition using flow cytometer (FACS ARIA II, BD Biosciences, San Jose, Calif.). […] In order to isolate these fractions, three sets of gates were drawn in the acquisition blot to separately sort and isolate High density or high complex cholesterol particles, Low density or low complex cholesterol particles and both High and low density cholesterol particles together.
as §1, §2
(§4) Scaffold (version Scaffold_4.2.1, Proteome Software Inc., Portland, Oreg.) was used to validate MS/MS based peptide and protein identifications. […] Protein probabilities were assigned by the Protein Prophet algorithm (Nesvizhskii, Al et al 2003).

Assay [5] has as its system Low density cholesterol (Chl small) plaque particles. More on the design: species or system human. On the procedure: as §3, §1, §2, §4

Take Apolipoprotein D: in assay [1], the “Semi-quantitative analysis of proteins binding to different plaque particles: Abeta-42” value came out at 0. In addition, in assay [2], the “Semi-quantitative analysis of proteins binding to different plaque particles: Synuclein” value stood at 1. Moreover, in assay [3], the “Semi-quantitative analysis of proteins binding to different plaque particles: Tau” value amounted to 3. For the same substance, in assay [4], the “Semi-quantitative analysis of proteins binding to different plaque particles: Chl Large” value was 2. For the same substance, the “Semi-quantitative analysis of proteins binding to different plaque particles: Chl small” value in assay [5] is given as 2.

Regarding Cathepsin D, in assay [1], the “Semi-quantitative analysis of proteins binding to different plaque particles: Abeta-42” value was 5. Also, in assay [2], the “Semi-quantitative analysis of proteins binding to different plaque particles: Synuclein” value was 0. In addition, in assay [3], the “Semi-quantitative analysis of proteins binding to different plaque particles: Tau” value is on record as 0. Also, the “Semi-quantitative analysis of proteins binding to different plaque particles: Chl Large” value in assay [4] worked out at 0. Moreover, the “Semi-quantitative analysis of proteins binding to different plaque particles: Chl small” value in assay [5] amounted to 0.

As to Cluster of Alpha-2-macroglobulin, the “Semi-quantitative analysis of proteins binding to different plaque particles: Abeta-42” value in assay [1] was 32. Besides, in assay [2], the “Semi-quantitative analysis of proteins binding to different plaque particles: Synuclein” value turned out to be 44. Moreover, the “Semi-quantitative analysis of proteins binding to different plaque particles: Tau” value in assay [3] was 45. Moreover, the “Semi-quantitative analysis of proteins binding to different plaque particles: Chl Large” value in assay [4] is 43. The “Semi-quantitative analysis of proteins binding to different plaque particles: Chl small” value in assay [5] is listed as 43.

Consider Cluster of Complement C3, for which, in assay [1], the “Semi-quantitative analysis of proteins binding to different plaque particles: Abeta-42” value was 63. Also, in assay [2], the “Semi-quantitative analysis of proteins binding to different plaque particles: Synuclein” value is 71. The “Semi-quantitative analysis of proteins binding to different plaque particles: Tau” value in assay [3] was 85. Also, the “Semi-quantitative analysis of proteins binding to different plaque particles: Chl Large” value in assay [4] is listed as 73. Besides, the “Semi-quantitative analysis of proteins binding to different plaque particles: Chl small” value in assay [5] is 67.

For the substance Cluster of Desmoplakin, in assay [1], the “Semi-quantitative analysis of proteins binding to different plaque particles: Abeta-42” value was 12. Moreover, the “Semi-quantitative analysis of proteins binding to different plaque particles: Synuclein” value in assay [2] was determined as 0. The “Semi-quantitative analysis of proteins binding to different plaque particles: Tau” value in assay [3] was 0. Also, in assay [4], the “Semi-quantitative analysis of proteins binding to different plaque particles: Chl Large” value is recorded as 0. Also, the “Semi-quantitative analysis of proteins binding to different plaque particles: Chl small” value in assay [5] is 0.

Regarding Cluster of Haptoglobin, in assay [1], the “Semi-quantitative analysis of proteins binding to different plaque particles: Abeta-42” value amounted to 25. The “Semi-quantitative analysis of proteins binding to different plaque particles: Synuclein” value in assay [2] was 24. Also, the “Semi-quantitative analysis of proteins binding to different plaque particles: Tau” value in assay [3] is 26. In addition, the “Semi-quantitative analysis of proteins binding to different plaque particles: Chl Large” value in assay [4] was 29. Also, the “Semi-quantitative analysis of proteins binding to different plaque particles: Chl small” value in assay [5] is on record as 31.

With Cluster of Hemoglobin subunit beta, the “Semi-quantitative analysis of proteins binding to different plaque particles: Abeta-42” value in assay [1] is listed as 4. Moreover, the “Semi-quantitative analysis of proteins binding to different plaque particles: Synuclein” value in assay [2] came out at 5. For the same substance, the “Semi-quantitative analysis of proteins binding to different plaque particles: Tau” value in assay [3] was found to be 3. The “Semi-quantitative analysis of proteins binding to different plaque particles: Chl Large” value in assay [4] was determined as 3. Moreover, the “Semi-quantitative analysis of proteins binding to different plaque particles: Chl small” value in assay [5] amounted to 2.

Turning to Cluster of Histone H1.2, the “Semi-quantitative analysis of proteins binding to different plaque particles: Abeta-42” value in assay [1] was 2. Besides, in assay [2], the “Semi-quantitative analysis of proteins binding to different plaque particles: Synuclein” value is 0. Besides, the “Semi-quantitative analysis of proteins binding to different plaque particles: Tau” value in assay [3] came out at 0. Besides, the “Semi-quantitative analysis of proteins binding to different plaque particles: Chl Large” value in assay [4] is 0. Further, the “Semi-quantitative analysis of proteins binding to different plaque particles: Chl small” value in assay [5] is recorded as 0.

Consider Cluster of Ig gamma-1 chain C region, for which the “Semi-quantitative analysis of proteins binding to different plaque particles: Abeta-42” value in assay [1] turned out to be 23. Also, the “Semi-quantitative analysis of proteins binding to different plaque particles: Synuclein” value in assay [2] was found to be 56. Moreover, the “Semi-quantitative analysis of proteins binding to different plaque particles: Tau” value in assay [3] came out at 37. Also, the “Semi-quantitative analysis of proteins binding to different plaque particles: Chl Large” value in assay [4] was 57. The “Semi-quantitative analysis of proteins binding to different plaque particles: Chl small” value in assay [5] turned out to be 63.

On to “Cluster of Ig heavy chain V-III region TEI”, for which, in assay [1], the “Semi-quantitative analysis of proteins binding to different plaque particles: Abeta-42” value is 7. Also, in assay [2], the “Semi-quantitative analysis of proteins binding to different plaque particles: Synuclein” value came out at 4. For the same substance, the “Semi-quantitative analysis of proteins binding to different plaque particles: Tau” value in assay [3] turned out to be 5. Besides, the “Semi-quantitative analysis of proteins binding to different plaque particles: Chl Large” value in assay [4] stood at 5. In addition, in assay [5], the “Semi-quantitative analysis of proteins binding to different plaque particles: Chl small” value is 6.

Take “Cluster of Ig kappa chain V-I region HK102”: in assay [1], the “Semi-quantitative analysis of proteins binding to different plaque particles: Abeta-42” value is given as 5. Also, the “Semi-quantitative analysis of proteins binding to different plaque particles: Synuclein” value in assay [2] is recorded as 1. For the same substance, the “Semi-quantitative analysis of proteins binding to different plaque particles: Tau” value in assay [3] was 1. In addition, the “Semi-quantitative analysis of proteins binding to different plaque particles: Chl Large” value in assay [4] amounted to 1. Further, in assay [5], the “Semi-quantitative analysis of proteins binding to different plaque particles: Chl small” value came out at 1.
